Experimental data as given in publication PMC12152147, “DDB1 engagement defines the selectivity of S656 analogs for cyclin K degradation over CDK inhibition” (EMBO Reports, 2025).
Values joined by “and” are separate entries in the source; they are usually repeats but may differ in a detail not shown here. Identical values can stand only once. Like-named read-outs stand apart in the source and are kept apart here.

What was measured:
[1] = tested on: OCI-AML5 cells expressing shRNA targeting CUL4A or CUL4B; experiment: Dose response in OCI-AML5 expressing shRNAs targeting CUL4A, CUL4B or control; format: cell-based, H. sapiens; conditions: ratio of IC50 in shCUL4A vs shCTRL OCI-AML5 cells
cyclin KeGFP = experiment: Cyclin KeGFP reporter system (eGFP/mCherry MFI by flow cytometry); format: cell-based, H. sapiens
In short: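 Degradation read as eGFP-to-mCherry MFI ratio relative to DMSO controls, from flow cytometry of the selected G7 clone of OCI-AML5 cells transduced with the cyclin KeGFP reporter.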

primary AML specimens = experiment: Dose-response assays in primary AML specimens (6 days, CellTiterGlo); format: cell-based, human; conditions: Homo sapiens, 144 h, 6 days, read-out: IC50
Procedure: Freshly thawed primary AML specimens were used for chemical screens. Cryopreserved cells were thawed at 37 °C in IMDM containing 20% FBS and DNase I (100 μg/mL). Cells were resuspended in IMDM supplemented with 15% BIT (BSA, insulin, transferrin; StemCell Technologies), 100 ng/mL SCF, 50 ng/mL FLT3L, 20 ng/mL IL3, 20 ng/mL G-CSF, 10^−4 mol/L b-mercaptoethanol, gentamicin (50 μg/mL), ciprofloxacin (10 μg/mL), SR1 (500 nmol/L) and UM729 (500 nmol/L). Cells were plated in 384-well white plates, 5000 cells per well in 50 μL. Compounds were dissolved in DMSO, diluted in media immediately before use and added to seeded cells at the unique concentration of 1 μM. Control wells received DMSO (0.1%) only. Cell viability was evaluated after 6 days in culture using the CellTiterGlo assay according to the manufacturer’s instruction. Percentage of inhibition for dose response curves was calculated as 100 – (100 × (mean luminescence [compound]/mean luminescence [DMSO])). Dose response curves were generated using nonlinear regression in GraphPad Prism version.
Dose-response assays in primary AML specimens were performed as in chemical screen (see above) with the exception that compounds were tested in serial dilution (8 dilutions, 1:4, 10 μM down to 0.5 nM). Dose-response assays in OCI-AML5 cell line were conducted similarly with the following modifications: 300 cells per well were seeded in 50 μL of cell line media and cell viability was evaluated after 4 days in culture.

CDK1 = target: T1, CDK1 (Homo sapiens, UniProt P06493); experiment: CDK1 in vitro kinase activity, single concentration 1 μM; format: biochemical; conditions: single concentration 1 μM
T1 construct: purchased BPS Bioscience 79597
Procedure: (§1) Kinase activity was assessed using the kinase assay kits from BPS Bioscience for CDK1, CDK9 and CDK12 with Kinase Glo MAX in duplicates. Compounds were tested at a single concentration of 1 μM for CDK1 and CDK9 activity, and in a dilution ranging from 0.64 nM to 50 μM for CDK12 activity. Chemiluminescence was read using the Neo Synergy BioTek plate reader.

CDK9/CyclinT = target: T2, CDK9/CyclinT (Homo sapiens, UniProt P50750); experiment: CDK9/CyclinT in vitro kinase activity, single concentration 1 μM; format: biochemical; conditions: single concentration 1 μM
T2 construct: purchased BPS Bioscience 79628
Procedure: as §1

[2] = tested on: OCI-AML5 cells expressing shRNAs targeting CDK1, 2, 4, 7, 9, cyclin K; experiment: Dose response in OCI-AML5 expressing shRNAs targeting CDK1, 2, 4, 7, 9, cyclin K or control; format: cell-based, H. sapiens
OCI-AML5 cells = experiment: Dose-response proliferative assay in OCI-AML5 (4 days, CellTiterGlo); format: cell-based, H. sapiens; conditions: Homo sapiens, OCI-AML-5, OCI-AML5 cells; read-out: IC50 in AML5
In short: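 Viability assessed after 4 days of compound exposure at 37 °C, 5% CO2. Compounds tested as 8 dilutions (1:4, 10 μM to 0.5 nM) on 300 OCI-AML5 cells/well grown in αMEM with 10% heat-inactivated FBS and 10 ng/mL GM-CSF.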

T1 sequence (P06493 whole entry): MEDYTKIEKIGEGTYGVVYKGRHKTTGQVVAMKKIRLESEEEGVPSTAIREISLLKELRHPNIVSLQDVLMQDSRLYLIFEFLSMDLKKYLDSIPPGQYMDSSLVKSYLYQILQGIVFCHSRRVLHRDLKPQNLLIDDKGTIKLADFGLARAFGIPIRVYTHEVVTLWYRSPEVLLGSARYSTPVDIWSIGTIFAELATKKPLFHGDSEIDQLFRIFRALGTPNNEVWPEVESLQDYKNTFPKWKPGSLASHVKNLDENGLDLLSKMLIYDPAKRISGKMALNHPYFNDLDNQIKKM
T1 sequence (P14635 whole entry partner): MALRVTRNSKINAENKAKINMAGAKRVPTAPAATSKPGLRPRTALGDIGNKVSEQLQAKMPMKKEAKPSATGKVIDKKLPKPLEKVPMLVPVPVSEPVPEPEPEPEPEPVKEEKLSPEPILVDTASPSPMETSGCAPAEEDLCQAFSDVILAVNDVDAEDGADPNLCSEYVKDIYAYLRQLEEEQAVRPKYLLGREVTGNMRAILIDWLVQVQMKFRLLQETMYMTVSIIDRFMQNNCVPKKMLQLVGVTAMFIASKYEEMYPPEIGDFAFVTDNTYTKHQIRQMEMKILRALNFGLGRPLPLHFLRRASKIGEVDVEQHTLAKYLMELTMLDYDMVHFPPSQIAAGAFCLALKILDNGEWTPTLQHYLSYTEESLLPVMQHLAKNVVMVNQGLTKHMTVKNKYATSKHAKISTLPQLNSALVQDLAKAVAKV
T2 sequence (P50750 whole entry): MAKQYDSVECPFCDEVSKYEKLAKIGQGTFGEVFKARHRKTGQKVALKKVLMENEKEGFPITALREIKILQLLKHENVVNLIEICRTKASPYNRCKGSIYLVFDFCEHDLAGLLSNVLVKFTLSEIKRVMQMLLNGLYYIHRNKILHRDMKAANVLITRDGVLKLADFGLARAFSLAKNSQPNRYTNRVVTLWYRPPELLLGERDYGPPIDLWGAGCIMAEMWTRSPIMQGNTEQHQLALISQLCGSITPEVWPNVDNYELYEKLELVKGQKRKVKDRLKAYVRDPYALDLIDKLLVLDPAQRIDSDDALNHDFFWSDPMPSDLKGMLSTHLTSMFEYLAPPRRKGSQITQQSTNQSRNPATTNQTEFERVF
T2 sequence (O60563 whole entry partner): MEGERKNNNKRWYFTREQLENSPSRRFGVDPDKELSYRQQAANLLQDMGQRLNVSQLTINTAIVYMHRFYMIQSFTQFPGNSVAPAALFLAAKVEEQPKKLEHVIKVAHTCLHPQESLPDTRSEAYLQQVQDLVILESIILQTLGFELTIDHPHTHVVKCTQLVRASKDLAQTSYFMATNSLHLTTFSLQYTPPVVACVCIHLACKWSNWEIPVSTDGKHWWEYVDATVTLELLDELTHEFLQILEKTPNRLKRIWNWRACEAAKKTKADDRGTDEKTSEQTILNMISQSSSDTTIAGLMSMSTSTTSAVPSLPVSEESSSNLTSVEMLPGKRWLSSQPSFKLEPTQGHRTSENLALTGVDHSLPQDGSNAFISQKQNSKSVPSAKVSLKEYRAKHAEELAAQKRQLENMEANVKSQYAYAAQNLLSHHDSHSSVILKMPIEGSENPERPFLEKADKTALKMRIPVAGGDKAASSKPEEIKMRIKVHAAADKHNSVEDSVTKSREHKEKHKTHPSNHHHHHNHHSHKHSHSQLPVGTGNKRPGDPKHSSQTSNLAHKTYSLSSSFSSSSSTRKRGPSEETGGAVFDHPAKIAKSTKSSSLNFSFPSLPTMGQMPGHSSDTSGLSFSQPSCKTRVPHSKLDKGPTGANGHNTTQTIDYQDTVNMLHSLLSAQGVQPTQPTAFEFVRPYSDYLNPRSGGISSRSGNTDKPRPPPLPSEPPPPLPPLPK

`Cn1cc(-n2cnc3c(NCc4nc5cc(Cl)c(Cl)cc5[nH]4)nc(N4CCOCC4)nc32)cn1` [SR4835] was tested, and the “Ratio shCUL4A/shCTRL” value [1] was 4.77, the “MFI of cyclin KeGFP over mCherry” value (cyclin KeGFP; OCI-AML5 G7 clone, 3 h, 10 μM, normalized to DMSO (=100)) was 16.0 and 15.3 and 15.4 and the “% degradation cyclin K-eGFP” value (cyclin KeGFP; cyclin K-eGFP reporter) was 84%. The IC50 (primary AML specimens; primary AML specimen 03H109) was 23.9 nM, the IC50 (primary AML specimens; primary AML specimen 04H055) was 37.9 nM and the IC50 (primary AML specimens; primary AML specimen 04H096) was 37.8 nM. The IC50 (primary AML specimens; primary AML specimen 04H138) was 46.2 nM, the IC50 (primary AML specimens; primary AML specimen 05H113) was 37.3 nM and the IC50 (primary AML specimens; primary AML specimen 05H149) was 45.5 nM. It also gave an IC50 (primary AML specimens; primary AML specimen 05H193) of 42.9 nM, an IC50 (primary AML specimens; primary AML specimen 06H088) of 40.2 nM and an IC50 (primary AML specimens; primary AML specimen 06H117) of 34.3 nM. The IC50 (primary AML specimens; primary AML specimen 06H151) was 28.5 nM, the IC50 (primary AML specimens; primary AML specimen 07H003) was 44.1 nM and the IC50 (primary AML specimens; primary AML specimen 07H131) was 99 nM. It also gave an IC50 (primary AML specimens; primary AML specimen 07H144) of 31.9 nM, an IC50 (primary AML specimens; primary AML specimen 07H155) of 55.9 nM and an IC50 (primary AML specimens; primary AML specimen 08H018) of 41.3 nM. The IC50 (primary AML specimens; primary AML specimen 08H021) was 29.8 nM, the IC50 (primary AML specimens; primary AML specimen 08H056) was 70.5 nM and the IC50 (primary AML specimens; primary AML specimen 08H063) was 125 nM. It also gave an IC50 (primary AML specimens; primary AML specimen 08H085) of 38.9 nM, an IC50 (primary AML specimens; primary AML specimen 08H108) of 41.7 nM and an IC50 (primary AML specimens; primary AML specimen 08H118) of 33.5 nM. The IC50 (primary AML specimens; primary AML specimen 09H016) was 35.3 nM, the IC50 (primary AML specimens; primary AML specimen 09H070) was 124 nM and the IC50 (primary AML specimens; primary AML specimen 10H014) was 38 nM. It also gave an IC50 (primary AML specimens; primary AML specimen 10H046) of 38.8 nM, an IC50 (primary AML specimens; primary AML specimen 10H107) of 37.1 nM and an IC50 (primary AML specimens; primary AML specimen 10H127) of 48 nM. It also gave an IC50 (primary AML specimens; primary AML specimen 10H161) of 42.2 nM, an IC50 (primary AML specimens; primary AML specimen 10H174) of 38.2 nM and an IC50 (primary AML specimens; primary AML specimen 11H008) of 45.7 nM. It also gave an IC50 (primary AML specimens; primary AML specimen 11H019) of 41 nM, an IC50 (primary AML specimens; primary AML specimen 11H170) of 141 nM and an IC50 (primary AML specimens; primary AML specimen 11H217) of 48.8 nM. For the same compound, the IC50 (primary AML specimens; primary AML specimen 11H232) was 39.8 nM, the IC50 (primary AML specimens; primary AML specimen 12H033) was 61.4 nM and the IC50 (primary AML specimens; primary AML specimen 12H055) was 44.7 nM. For the same compound, the IC50 (primary AML specimens; primary AML specimen 12H148) was 44.4 nM, the IC50 (primary AML specimens; primary AML specimen 13H053) was 55.9 nM and the IC50 (primary AML specimens; primary AML specimen 15H045) was 28.4 nM. It also gave an IC50 (primary AML specimens; primary AML specimen 17H065) of 59.1 nM, an inhibition at 1 µM (CDK1) of 0% and an inhibition at 1 µM (CDK9/CyclinT) of 0%. It also gave an IC50 ([2]; Homo sapiens, OCI-AML-5, 96 h, read-out: IC50, sh CDK1, OCI-AML5, 4 days) of 25.2 nM, an IC50 ([2]; Homo sapiens, OCI-AML-5, 96 h, read-out: IC50, sh CDK2, OCI-AML5, 4 days) of 22.8 nM and an IC50 ([2]; Homo sapiens, OCI-AML-5, 96 h, read-out: IC50, sh CDK4, OCI-AML5, 4 days) of 17.4 nM. It also gave an IC50 ([2]; Homo sapiens, OCI-AML-5, 96 h, read-out: IC50, sh CDK7, OCI-AML5, 4 days) of 20.2 nM, an IC50 ([2]; Homo sapiens, OCI-AML-5, 96 h, read-out: IC50, sh CDK9, OCI-AML5, 4 days) of 21.4 nM and an IC50 ([2]; Homo sapiens, OCI-AML-5, 96 h, read-out: IC50, sh Cyclin K, OCI-AML5, 4 days) of 5.7 nM. The IC50 ([2]; Homo sapiens, OCI-AML-5, 96 h, read-out: IC50, sh ctrl, OCI-AML5, 4 days) was 21.2 nM, the Class ([2]; class from shRNA IC50 profile and cyclin K-eGFP degradation) was 1 and the IC50 ([2]; read-out: IC50, sh CDK1, OCI-AML5, 4 days) was 22.7 nM and 35.9 nM. For the same compound, the IC50 ([2]; read-out: IC50, sh CDK2, OCI-AML5, 4 days) was 21.1 nM and 33.4 nM, the IC50 ([2]; read-out: IC50, sh CDK4, OCI-AML5, 4 days) was 20.7 nM and 17.8 nM and the IC50 ([2]; read-out: IC50, sh CDK7, OCI-AML5, 4 days) was 23.7 nM and 34.5 nM. The IC50 ([2]; read-out: IC50, sh CDK9, OCI-AML5, 4 days) was 17.3 nM and 16.7 nM, the IC50 ([2]; read-out: IC50, sh Cyclin K, OCI-AML5, 4 days) was 8.31 nM and 5.07 nM and the IC50 ([2]; read-out: IC50, sh ctrl, OCI-AML5, 4 days) was 17.9 nM and 15.9 nM. For the same compound, the IC50 (OCI-AML5 cells) was 18 nM.
